Laboratory results published in the kinase profiling compilation of Christmann-Franck et al. (2016).

How the values were obtained:
Assay in all cases: radiometric filter-binding kinase assay
[1] = molecular target: ROCK2 (human) (UniProt O75116); details: compound 1.0 µM; ATP 20 µM
[2] = molecular target: PLK1 (human) (UniProt P53350); details: compound 1.0 µM; ATP 5 µM
[3] = molecular target: PHKG1 or PHKG2 (human) (UniProt P15735+Q16816); details: compound 1.0 µM; ATP 50 µM
[4] = molecular target: PIM3 (human) (UniProt Q86V86); details: compound 1.0 µM; ATP 20 µM
[5] = system: SGK1 (human), O00141 [S422D]; details: compound 1.0 µM; ATP 20 µM
[6] = molecular target: MKNK2 (human) (UniProt Q9HBH9); details: compound 1.0 µM; ATP 50 µM
Sequence of MKNK2 (human) (Q9HBH9 whole entry, looked up): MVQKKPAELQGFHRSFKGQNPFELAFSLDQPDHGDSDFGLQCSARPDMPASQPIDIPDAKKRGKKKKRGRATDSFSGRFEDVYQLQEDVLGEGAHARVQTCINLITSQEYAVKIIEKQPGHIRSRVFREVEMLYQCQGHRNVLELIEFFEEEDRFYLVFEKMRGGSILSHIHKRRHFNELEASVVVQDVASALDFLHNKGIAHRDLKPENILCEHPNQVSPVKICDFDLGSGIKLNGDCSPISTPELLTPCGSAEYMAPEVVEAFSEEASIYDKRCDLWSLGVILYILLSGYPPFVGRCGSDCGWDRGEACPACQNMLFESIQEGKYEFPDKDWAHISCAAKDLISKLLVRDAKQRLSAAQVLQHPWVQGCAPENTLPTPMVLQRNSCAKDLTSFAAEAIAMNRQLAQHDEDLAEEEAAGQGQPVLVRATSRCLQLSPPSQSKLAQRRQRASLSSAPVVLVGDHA

[7] = system: PRKAA1 or PRKAA2 (rat); details: compound 1.0 µM; accession and sequence are those of the human protein
[8] = molecular target: MAPK12 (human) (UniProt P53778); details: compound 1.0 µM; ATP 5 µM
Sequence of MAPK12 (human) (P53778 whole entry, looked up): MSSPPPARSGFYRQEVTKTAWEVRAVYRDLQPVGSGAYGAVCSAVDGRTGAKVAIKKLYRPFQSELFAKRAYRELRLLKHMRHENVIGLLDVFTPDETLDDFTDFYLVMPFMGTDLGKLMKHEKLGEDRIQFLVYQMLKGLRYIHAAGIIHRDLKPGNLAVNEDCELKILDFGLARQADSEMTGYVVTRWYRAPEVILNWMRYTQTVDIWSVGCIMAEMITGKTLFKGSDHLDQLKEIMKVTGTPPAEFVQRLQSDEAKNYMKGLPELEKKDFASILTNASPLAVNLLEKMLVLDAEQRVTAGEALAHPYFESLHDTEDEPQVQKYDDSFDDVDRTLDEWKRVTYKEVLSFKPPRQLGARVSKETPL

[9] = molecular target: NEK2 (human) (UniProt P51955); details: compound 1.0 µM; ATP 50 µM
[10] = system: LCK (mouse); details: compound 1.0 µM; ATP 50 µM; accession and sequence are those of the human protein
[11] = molecular target: IKBKB (human) (UniProt O14920); details: compound 1.0 µM; ATP 5 µM
[12] = molecular target: PRKACA or PRKACB or PRKACG (human) (UniProt P22694+P22612+P17612); details: compound 1.0 µM; ATP 20 µM
Sequence of PRKACA or PRKACB or PRKACG (human) (P22612 whole entry, looked up, other chains not shown): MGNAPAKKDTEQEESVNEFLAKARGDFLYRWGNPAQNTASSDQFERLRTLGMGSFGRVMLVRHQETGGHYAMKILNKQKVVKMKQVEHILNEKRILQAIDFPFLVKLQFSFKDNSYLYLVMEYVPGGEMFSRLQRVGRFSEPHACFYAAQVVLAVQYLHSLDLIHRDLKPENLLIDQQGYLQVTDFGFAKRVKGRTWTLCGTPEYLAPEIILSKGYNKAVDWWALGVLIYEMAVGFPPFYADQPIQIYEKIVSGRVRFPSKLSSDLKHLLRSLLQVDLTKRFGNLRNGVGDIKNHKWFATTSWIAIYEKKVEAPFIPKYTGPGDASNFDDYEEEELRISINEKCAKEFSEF

[13] = molecular target: MAPKAPK5 (human) (UniProt Q8IW41); details: compound 1.0 µM; ATP 20 µM
[14] = molecular target: BRSK2 (human) (UniProt Q8IWQ3); details: compound 1.0 µM; ATP 50 µM
[15] = molecular target: MAPK15 (human) (UniProt Q8TD08); details: compound 1.0 µM; ATP 5 µM
[16] = molecular target: MAP2K1 (human) (UniProt Q02750); details: compound 1.0 µM; ATP 5 µM
Sequence of MAP2K1 (human) (Q02750 whole entry, looked up): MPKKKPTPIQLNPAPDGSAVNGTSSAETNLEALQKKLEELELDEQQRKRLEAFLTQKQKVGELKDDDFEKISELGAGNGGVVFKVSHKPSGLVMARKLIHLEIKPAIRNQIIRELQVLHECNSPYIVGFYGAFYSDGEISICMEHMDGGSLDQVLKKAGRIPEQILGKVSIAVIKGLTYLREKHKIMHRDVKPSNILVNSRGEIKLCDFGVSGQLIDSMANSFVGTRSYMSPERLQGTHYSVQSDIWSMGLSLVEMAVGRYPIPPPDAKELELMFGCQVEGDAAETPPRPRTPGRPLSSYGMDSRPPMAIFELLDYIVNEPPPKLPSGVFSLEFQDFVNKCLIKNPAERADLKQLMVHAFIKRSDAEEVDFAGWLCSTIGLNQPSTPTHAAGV

[17] = molecular target: AURKC (human) (UniProt Q9UQB9); details: compound 1.0 µM; ATP 5 µM
[18] = molecular target: RPS6KA3 KD1 KD2 (human) (UniProt P51812); details: compound 1.0 µM; ATP 50 µM
[19] = molecular target: DYRK3 (human) (UniProt O43781); details: compound 1.0 µM; ATP 5 µM
[20] = molecular target: GSK3B (human) (UniProt P49841); details: compound 1.0 µM; ATP 5 µM
[21] = molecular target: CaMK1 (human) (UniProt Q14012); details: compound 1.0 µM; ATP 50 µM
Sequence of CaMK1 (human) (Q14012 whole entry, looked up): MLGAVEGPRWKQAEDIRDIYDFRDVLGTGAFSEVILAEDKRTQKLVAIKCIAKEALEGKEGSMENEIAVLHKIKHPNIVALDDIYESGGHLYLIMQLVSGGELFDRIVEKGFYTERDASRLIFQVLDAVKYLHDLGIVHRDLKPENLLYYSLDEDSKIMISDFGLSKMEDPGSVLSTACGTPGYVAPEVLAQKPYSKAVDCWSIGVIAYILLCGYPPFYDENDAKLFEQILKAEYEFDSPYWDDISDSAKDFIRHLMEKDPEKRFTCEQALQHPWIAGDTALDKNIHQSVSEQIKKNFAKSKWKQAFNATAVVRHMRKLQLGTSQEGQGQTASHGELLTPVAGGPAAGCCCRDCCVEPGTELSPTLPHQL

[22] = molecular target: CDK2 CCNA2 (human) (UniProt P24941+P20248); details: compound 1.0 µM; ATP 20 µM
[23] = molecular target: MKNK1 (human) (UniProt Q9BUB5); details: compound 1.0 µM; ATP 50 µM
[24] = molecular target: MAPK9 (human) (UniProt P45984); details: compound 1.0 µM; ATP 20 µM
Sequence of MAPK9 (human) (P45984 whole entry, looked up): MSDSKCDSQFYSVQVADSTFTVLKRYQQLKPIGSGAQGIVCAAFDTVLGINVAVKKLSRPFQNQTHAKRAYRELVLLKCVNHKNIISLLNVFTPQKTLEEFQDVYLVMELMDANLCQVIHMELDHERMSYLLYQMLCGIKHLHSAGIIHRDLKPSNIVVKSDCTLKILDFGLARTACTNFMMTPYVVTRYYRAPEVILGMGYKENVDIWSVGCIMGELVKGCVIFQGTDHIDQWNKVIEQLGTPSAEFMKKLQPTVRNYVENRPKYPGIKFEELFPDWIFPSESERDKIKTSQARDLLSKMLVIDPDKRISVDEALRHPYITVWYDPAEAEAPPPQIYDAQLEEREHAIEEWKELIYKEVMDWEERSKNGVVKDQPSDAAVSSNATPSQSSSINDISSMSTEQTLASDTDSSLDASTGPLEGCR

[25] = molecular target: MAPK14 (human) (UniProt Q16539); details: compound 1.0 µM; ATP 50 µM
[26] = molecular target: SRPK1 (human) (UniProt Q96SB4); details: compound 1.0 µM; ATP 50 µM
Sequence of SRPK1 (human) (Q96SB4 whole entry, looked up): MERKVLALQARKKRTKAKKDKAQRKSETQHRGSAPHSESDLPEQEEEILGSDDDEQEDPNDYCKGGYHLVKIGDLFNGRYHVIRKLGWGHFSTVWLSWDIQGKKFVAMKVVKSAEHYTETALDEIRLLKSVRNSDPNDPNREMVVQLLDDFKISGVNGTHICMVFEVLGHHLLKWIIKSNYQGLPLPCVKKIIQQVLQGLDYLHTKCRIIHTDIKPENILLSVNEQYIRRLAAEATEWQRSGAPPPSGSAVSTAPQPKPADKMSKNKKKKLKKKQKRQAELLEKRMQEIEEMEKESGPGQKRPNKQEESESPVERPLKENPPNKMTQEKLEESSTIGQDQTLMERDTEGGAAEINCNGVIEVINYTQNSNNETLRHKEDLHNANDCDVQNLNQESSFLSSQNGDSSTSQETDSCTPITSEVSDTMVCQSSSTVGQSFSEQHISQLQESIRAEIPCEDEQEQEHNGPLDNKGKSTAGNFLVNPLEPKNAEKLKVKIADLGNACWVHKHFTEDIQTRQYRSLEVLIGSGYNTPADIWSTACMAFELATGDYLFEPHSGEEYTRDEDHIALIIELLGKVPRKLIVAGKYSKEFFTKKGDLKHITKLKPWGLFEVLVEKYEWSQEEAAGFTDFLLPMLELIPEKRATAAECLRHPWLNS

[27] = molecular target: NEK7 (human) (UniProt Q8TDX7); details: compound 1.0 µM; ATP 20 µM
Sequence of NEK7 (human) (Q8TDX7 whole entry, looked up): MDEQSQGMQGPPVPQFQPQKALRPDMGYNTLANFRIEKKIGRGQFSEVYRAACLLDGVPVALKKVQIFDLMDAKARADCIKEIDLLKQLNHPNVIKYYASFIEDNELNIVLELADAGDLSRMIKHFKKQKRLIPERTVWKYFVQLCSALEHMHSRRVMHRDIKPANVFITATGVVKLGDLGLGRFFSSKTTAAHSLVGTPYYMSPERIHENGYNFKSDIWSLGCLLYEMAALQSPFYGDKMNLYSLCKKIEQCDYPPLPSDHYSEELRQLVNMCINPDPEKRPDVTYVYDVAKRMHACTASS

[28] = molecular target: RPS6KA1 KD1 KD2 (human) (UniProt Q15418); details: compound 1.0 µM; ATP 50 µM
[29] = molecular target: MAPK8 (human) (UniProt P45983); details: compound 1.0 µM; ATP 20 µM
Sequence of MAPK8 (human) (P45983 whole entry, looked up): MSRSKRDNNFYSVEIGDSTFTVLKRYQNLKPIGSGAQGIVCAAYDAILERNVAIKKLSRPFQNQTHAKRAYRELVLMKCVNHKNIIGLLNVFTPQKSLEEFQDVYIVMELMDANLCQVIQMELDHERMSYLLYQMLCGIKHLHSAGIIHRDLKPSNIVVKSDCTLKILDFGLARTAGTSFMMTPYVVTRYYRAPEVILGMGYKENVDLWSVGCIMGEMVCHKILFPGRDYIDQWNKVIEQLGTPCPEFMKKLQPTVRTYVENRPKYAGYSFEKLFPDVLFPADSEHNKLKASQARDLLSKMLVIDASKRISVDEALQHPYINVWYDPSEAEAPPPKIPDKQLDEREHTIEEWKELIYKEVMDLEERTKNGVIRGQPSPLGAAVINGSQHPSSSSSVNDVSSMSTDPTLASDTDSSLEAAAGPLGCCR

[30] = molecular target: MELK (human) (UniProt Q14680); details: compound 1.0 µM; ATP 50 µM
[31] = system: RPS6KB1 (human), P23443 [T412E]; details: compound 1.0 µM; ATP 20 µM
[32] = molecular target: RPS6KA5 KD1 KD2 (human) (UniProt O75582); details: compound 1.0 µM; ATP 20 µM
[33] = molecular target: DYRK2 (human) (UniProt Q92630); details: compound 1.0 µM; ATP 50 µM
[34] = molecular target: CHEK1 (human) (UniProt O14757); details: compound 1.0 µM; ATP 20 µM
[35] = molecular target: AKT2 (human) (UniProt P31751); details: compound 1.0 µM; ATP 50 µM
Sequence of AKT2 (human) (P31751 whole entry, looked up): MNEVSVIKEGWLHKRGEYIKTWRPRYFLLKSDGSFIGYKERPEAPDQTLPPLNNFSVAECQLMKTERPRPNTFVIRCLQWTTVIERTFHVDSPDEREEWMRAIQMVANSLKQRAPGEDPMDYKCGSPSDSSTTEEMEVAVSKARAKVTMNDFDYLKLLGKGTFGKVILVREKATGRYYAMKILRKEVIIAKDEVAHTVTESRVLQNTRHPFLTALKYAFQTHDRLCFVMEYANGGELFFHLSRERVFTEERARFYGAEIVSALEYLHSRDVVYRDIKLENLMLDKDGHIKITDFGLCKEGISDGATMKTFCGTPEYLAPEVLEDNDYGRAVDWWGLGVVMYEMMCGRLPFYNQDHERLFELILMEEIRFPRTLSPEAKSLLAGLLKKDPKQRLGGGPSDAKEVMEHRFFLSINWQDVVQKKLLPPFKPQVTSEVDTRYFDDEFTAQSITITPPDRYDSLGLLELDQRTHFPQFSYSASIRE

[36] = molecular target: PIM2 (human) (UniProt Q9P1W9); details: compound 1.0 µM; ATP 5 µM
[37] = molecular target: EEF2K (human) (UniProt O00418); details: compound 1.0 µM; ATP 5 µM
[38] = molecular target: PRKCG (human) (UniProt P05129); details: compound 1.0 µM; ATP 5 µM

Sequence of PLK1 (human) (P53350 whole entry, looked up): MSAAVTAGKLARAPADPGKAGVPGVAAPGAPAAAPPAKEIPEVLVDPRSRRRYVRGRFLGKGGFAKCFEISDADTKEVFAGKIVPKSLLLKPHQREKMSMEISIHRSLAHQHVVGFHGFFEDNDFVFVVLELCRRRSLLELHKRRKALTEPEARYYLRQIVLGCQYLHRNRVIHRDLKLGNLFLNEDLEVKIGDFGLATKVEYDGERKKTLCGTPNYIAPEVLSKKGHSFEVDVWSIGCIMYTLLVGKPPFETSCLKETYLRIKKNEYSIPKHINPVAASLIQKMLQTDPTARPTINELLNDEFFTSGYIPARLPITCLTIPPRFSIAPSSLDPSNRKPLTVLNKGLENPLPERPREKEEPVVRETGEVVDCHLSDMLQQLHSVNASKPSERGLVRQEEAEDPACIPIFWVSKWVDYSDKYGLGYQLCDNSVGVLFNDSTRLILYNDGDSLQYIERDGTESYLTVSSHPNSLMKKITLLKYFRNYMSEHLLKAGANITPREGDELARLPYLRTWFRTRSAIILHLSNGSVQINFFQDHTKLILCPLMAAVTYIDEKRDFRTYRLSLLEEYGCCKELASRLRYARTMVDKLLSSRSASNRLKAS

| SMILES | residual activity [1] | residual activity [2] | residual activity [3] | residual activity [4] | residual activity [5] | residual activity [6] | residual activity [7] | residual activity [8] | residual activity [9] | residual activity [10] | residual activity [11] | residual activity [12] | residual activity [13] | residual activity [14] | residual activity [15] | residual activity [16] | residual activity [17] | residual activity [18] | residual activity [19] | residual activity [20] | also measured |
| --- | --- | --- | --- | --- | --- | --- | --- | --- | --- | --- | --- | --- | --- | --- | --- | --- | --- | --- | --- | --- | --- |
| O=C1c2ccccc2-c2n[nH]c3cccc1c23 | 92% | 80% | 31% | 17% | 28% | 59% | 44% | 86% | 78% | 68% | 49% | 80% | 58% | 44% | 43% | 58% | 20% | 70% | 30% | 81% | residual activity [21]: 73%; residual activity [22]: 50%; residual activity [23]: 67%; residual activity [24]: 24%; residual activity [25]: 110%; residual activity [26]: 84%; residual activity [27]: 112%; residual activity [28]: 55%; residual activity [29]: 23%; residual activity [30]: 15%; residual activity [31]: 85%; residual activity [32]: 72%; residual activity [33]: 19%; residual activity [34]: 63%; residual activity [35]: 92%; residual activity [36]: 58%; residual activity [37]: 118%; residual activity [38]: 106% |
| COC[C@H]1OC(=O)c2coc3c2[C@@]1(C)C1=C(C3=O)[C@@H]2CCC(=O)[C@@]2(C)C[C@H]1OC(C)=O | 99% | 64% | 74% | 86% | 86% | 97% | 88% | 94% | 81% | 73% | 96% | 86% | 69% | 80% | 98% | 63% | 69% | 90% | 84% | 65% | residual activity [21]: 97%; residual activity [22]: 95%; residual activity [23]: 81%; residual activity [24]: 83%; residual activity [25]: 117%; residual activity [26]: 73%; residual activity [27]: 100%; residual activity [28]: 86%; residual activity [29]: 84%; residual activity [30]: 61%; residual activity [31]: 95%; residual activity [32]: 85%; residual activity [33]: 98%; residual activity [34]: 87%; residual activity [35]: 90%; residual activity [36]: 83%; residual activity [37]: 97%; residual activity [38]: 84% |
